Reference: article PMC6240092, “NUAK2 is a critical YAP target in liver cancer” (Nature Communications, 2018)

Molecular target: T1, NUAK2 (Homo sapiens, UniProt Q9H093)
T1 construct: N-terminal GST-tagged NUAK2, expressed in HEK-293 cells and purified by glutathione-sepharose
T1 sequence (Q9H093 1-628): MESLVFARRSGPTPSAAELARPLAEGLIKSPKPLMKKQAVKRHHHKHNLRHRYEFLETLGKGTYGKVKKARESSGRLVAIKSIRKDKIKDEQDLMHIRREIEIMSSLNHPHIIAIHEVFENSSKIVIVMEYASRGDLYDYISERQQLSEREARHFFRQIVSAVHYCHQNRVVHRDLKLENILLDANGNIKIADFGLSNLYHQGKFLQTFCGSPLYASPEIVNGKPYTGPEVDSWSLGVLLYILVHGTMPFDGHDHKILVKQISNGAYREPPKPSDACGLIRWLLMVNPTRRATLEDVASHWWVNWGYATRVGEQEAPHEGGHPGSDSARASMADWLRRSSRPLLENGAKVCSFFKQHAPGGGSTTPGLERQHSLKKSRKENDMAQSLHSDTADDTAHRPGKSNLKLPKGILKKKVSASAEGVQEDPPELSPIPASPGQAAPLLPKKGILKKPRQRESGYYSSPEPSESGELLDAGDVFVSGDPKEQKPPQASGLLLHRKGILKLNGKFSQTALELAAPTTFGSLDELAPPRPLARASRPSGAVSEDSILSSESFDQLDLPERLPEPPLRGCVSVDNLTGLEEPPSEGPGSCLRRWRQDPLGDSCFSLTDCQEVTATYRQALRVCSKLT
Test: radiometric peptide kinase assay with [γ-32P]ATP ([…]) and Sakamototide ([…])
Assay type: biochemical

Compound: CCC(=O)Nc1cccc(Oc2nc(Nc3ccc(N4CCN(C)CC4)cc3OC)ncc2I)c1 [HTH-02-006]
- IC50: 126 nM
